In the NIST ThermoML archive (doi:10.1021/je700260f):
± gives the expanded uncertainty stated by the source.

Settings: 303.15 K, Liquid, Vibrating tube method

FC(C(F)(F)F)C(F)(F)F [1,1,1,2,3,3,3-heptafluoropropane]
Settings | mass density [kg/m3]
1945 kPa | 1378.6 ± 1.5
1968 kPa | 1378.8 ± 1.5
1989 kPa | 1379 ± 1.5
2014 kPa | 1379.2 ± 1.5
2041 kPa | 1379.4 ± 1.5
2063 kPa | 1379.7 ± 1.5
2084 kPa | 1379.7 ± 1.5
2105 kPa | 1379.8 ± 1.5
2131 kPa | 1380.1 ± 1.5
2283 kPa | 1381.5 ± 1.5
2308 kPa | 1381.6 ± 1.5
2332 kPa | 1381.8 ± 1.5
2353 kPa | 1381.9 ± 1.5
2378 kPa | 1382.2 ± 1.5
2402 kPa | 1382.4 ± 1.5
2418 kPa | 1382.4 ± 1.5
2439 kPa | 1382.6 ± 1.5
2461 kPa | 1382.7 ± 1.5
2482 kPa | 1383 ± 1.5
2510 kPa | 1383.4 ± 1.5
2528 kPa | 1383.3 ± 1.5
2552 kPa | 1383.4 ± 1.5
2569 kPa | 1383.6 ± 1.5
2591 kPa | 1383.8 ± 1.5
2607 kPa | 1384 ± 1.5
2632 kPa | 1384.1 ± 1.5
2651 kPa | 1384.2 ± 1.5
2673 kPa | 1384.4 ± 1.5
2695 kPa | 1384.5 ± 1.5
2718 kPa | 1384.7 ± 1.5
2737 kPa | 1384.9 ± 1.5
2762 kPa | 1385 ± 1.5
3000 kPa | 1387 ± 1.5
3022 kPa | 1387.1 ± 1.5
3068 kPa | 1387.5 ± 1.5
3088 kPa | 1387.7 ± 1.5
3114 kPa | 1387.8 ± 1.5
3136 kPa | 1387.9 ± 1.5
3203 kPa | 1388.6 ± 1.5
3222 kPa | 1388.8 ± 1.5
3271 kPa | 1389 ± 1.5
3293 kPa | 1389.2 ± 1.5
3319 kPa | 1389.4 ± 1.5
3357 kPa | 1389.6 ± 1.5
3383 kPa | 1389.8 ± 1.5
3402 kPa | 1390.2 ± 1.5
3428 kPa | 1390.3 ± 1.5
3448 kPa | 1390.3 ± 1.5
3471 kPa | 1390.4 ± 1.5
3498 kPa | 1390.7 ± 1.5
3521 kPa | 1390.8 ± 1.5
3541 kPa | 1391.2 ± 1.5
3568 kPa | 1391.4 ± 1.5
3587 kPa | 1391.3 ± 1.5
3614 kPa | 1391.6 ± 1.5
3637 kPa | 1391.7 ± 1.5
3667 kPa | 1391.9 ± 1.5
3690 kPa | 1392.1 ± 1.5
3714 kPa | 1392.2 ± 1.5
3735 kPa | 1392.5 ± 1.5
3765 kPa | 1392.7 ± 1.5
3789 kPa | 1393 ± 1.5
3820 kPa | 1393 ± 1.5
3844 kPa | 1393.3 ± 1.5
3875 kPa | 1393.5 ± 1.5
3902 kPa | 1393.7 ± 1.5
3919 kPa | 1393.8 ± 1.5
3940 kPa | 1394 ± 1.5
3964 kPa | 1394.2 ± 1.5
3991 kPa | 1394.5 ± 1.5
4022 kPa | 1394.6 ± 1.5
4050 kPa | 1394.7 ± 1.5
4072 kPa | 1395 ± 1.5
4099 kPa | 1395.1 ± 1.5
4123 kPa | 1395.3 ± 1.5
4147 kPa | 1395.5 ± 1.5
4168 kPa | 1395.6 ± 1.5
4189 kPa | 1395.8 ± 1.5
4217 kPa | 1396 ± 1.5
4249 kPa | 1396.3 ± 1.5
4273 kPa | 1396.5 ± 1.5
4290 kPa | 1396.4 ± 1.5
4416 kPa | 1397.5 ± 1.5
4444 kPa | 1397.6 ± 1.5
4466 kPa | 1397.8 ± 1.5
4497 kPa | 1397.9 ± 1.5
4524 kPa | 1398 ± 1.5
4552 kPa | 1398.4 ± 1.5
4582 kPa | 1398.6 ± 1.5
4611 kPa | 1398.9 ± 1.5
4633 kPa | 1399.1 ± 1.5
4659 kPa | 1399.4 ± 1.5
4684 kPa | 1399.2 ± 1.5
4710 kPa | 1399.5 ± 1.5
4735 kPa | 1399.6 ± 1.5
4765 kPa | 1399.9 ± 1.5
4788 kPa | 1400 ± 1.5
4811 kPa | 1400.2 ± 1.5
4875 kPa | 1400.6 ± 1.5
4904 kPa | 1400.9 ± 1.5
4933 kPa | 1401.1 ± 1.5
4958 kPa | 1401.2 ± 1.5
4984 kPa | 1401.4 ± 1.5
